Measured values taken from BindingDB's records for doi:10.1021/jm00128a027 (Rorer Central Research, 1989).

Biological target: Polyunsaturated fatty acid 5-lipoxygenase (Cavia porcellus)
Experiment: In vitro inhibition of polymorphonuclear leukocyte derived guinea pig 5-lipoxygenase

Row | IC50 [µM] | SMILES
1 | 0.13 | O=C(CCCc1ccccc1)N(O)CCc1ccccc1
2 | 0.05 | O=C(c1ccc(OCc2ccccc2)cc1)N(O)CCc1ccccc1
